Source: patent US20210278408A1, “METHODS OF TREATMENT OF CANCER WITH SUBSTITUTED PYRROLE AND PYRAZOLE COMPOUNDS AND DIAGNOSIS OF CANCERS SUSCEPTIBLE TO TREATMENT WITH SUBSTITUTED PYRROLE AND PYRAZOLE COMPOUNDS” (Bantam Pharmaceutical, LLC, priority 2018, published 2021)
pIC50: −log10 of the molar value. Read-outs that look alike come from different tables or passages of the source.

Test system: 407 cancer cell lines
Experiment: Cell viability of cancer cell lines (IC50), CellTiter-Glo Viability Assay, 96 h
Format: cell-based
Conditions: Homo sapiens, read-out: Absolute IC50
Protocol: Viability was determined by using the 50% inhibitory concentration (IC50) as determined with the CellTiter-Glo® Viability Assay (Promega).
Experiments were initiated by first thawing and equilibrating the CellTiter-Glo® Buffer to room temperature. The lyophilized CellTiter-Glo® Substrate was also equilibrated to room temperature. The lyophilized substrate was reconstituted with the CellTiter-Glo® buffer to form the CellTiter-Glo® Reagent.
Cells were harvested during the logarithmic growth period, counted, and the cell concentration adjusted to 4.44×10^4 cells/mL using culture medium.
Cells were allowed to grow overnight and the following day, the TO reading was obtained by adding 10 μL culture medium to each well of Plate A. The plate was allowed to equilibrate at room temperature for thirty minutes, after which 50 μL CellTiter-Glo® reagent was added to each well. The contents were mixed for 5 min on an orbital shaker to induce cell lysis. Plates were incubated for 20 minutes to stabilize the luminescent signal and the TO luminescence recorded.
Test plate B was incubated for 96 h in the humidified incubator at 37° C. with 5% CO2.
Following the incubation, the plate was equilibrated at room temperature for thirty minutes. CellTiter-Glo® (50 μL) was added to each well of the plate and contents mixed for five minutes on an orbital shaker to induce cell lysis. The luminescent signal was allowed to stabilize at room temperature for 20 minutes and the luminescence recorded.
IC50 (EC50) was calculated using a dose-response curve, fitted using a nonlinear regression model with a sigmoidal dose response. Survival rate was calculated using the formula:
The Surviving rate (%)=(LumTest article−LumMedium control)/(LumNon-treated−LumMedium control)×100%.
Absolute IC50 (EC50) was calculated according to the dose-response curve generated by the statistical software (GraphPad Prism 5.0).

Work on `Cc1nn(-c2nc(-c3ccc(C(F)(F)F)cc3)c(SC(C)C)s2)c(C(=O)O)c1-c1cccc(F)c1` [Compound A197, 4-(3-fluorophenyl)-1-(5-(isopropylthio)-4-(4-(trifluoromethyl)phenyl)thiazol-2-yl)-3-methyl-1H-pyrazole-5-carboxylic acid] yielded a pIC50 (DMS-79, DMS 79) of less than 4.52, a pIC50 (DMS-114, 96 h, DMS 114 cells, 96 h) of less than 4.52 and a pIC50 (DOHH-2, 96 h, DOHH-2 cells, 96 h) of 6.51. The pIC50 (DU-145, 96 h, DU 145, 96 h) was 6.07, the pIC50 (DU-4475, DU4475) was 6.49 and the pIC50 (DV-90, 96 h, DV-90 cells, 96 h) was less than 4.52. For the same compound, the pIC50 (Daoy, 96 h, Daoy cells, 96 h) was less than 4.52, the pIC50 (Daudi, 96 h, Daudi cells, 96 h) was 6.09 and the pIC50 (Detroit 562, 96 h, Detroit 562 cells, 96 h) was less than 4.52. The pIC50 (DoTc2-4510, 96 h, DoTc2 4510 cells, 96 h) was less than 4.52, the pIC50 (EBC-1, 96 h) was less than 4.52 and the pIC50 (EJM, 96 h, EJM cells, 96 h) was 5.52. It also gave a pIC50 (EOL1, EOL-1) of 6.13, a pIC50 (ES-2, 96 h, ES-2 cells, 96 h) of less than 4.52 and a pIC50 (FTC-133, FTC-133) of 6.08. The pIC50 (FaDu, 96 h, FaDu, 96 h) was 6.42, the pIC50 (G292, 96 h, G-292 clone A141B1 cells, 96 h) was 5.73 and the pIC50 (GTL 16, 96 h, GTL-16 cells, 96 h) was less than 4.52. For the same compound, the pIC50 (Granta-519, GRANTA-519) was 6.00, the pIC50 (HCC38, HCC38) was less than 4.52 and the pIC50 (HCC78, 96 h, HCC-78 cells, 96 h) was 6.39. It also gave a pIC50 (HCC827, 96 h, HCC827 cells, 96 h) of less than 4.52, a pIC50 (HCC1187, 96 h, HCC1187 cells, 96 h) of less than 4.52 and a pIC50 (HCC1428, HCC1428) of less than 4.52. For the same compound, the pIC50 (HCC1569, HCC1569) was less than 4.52, the pIC50 (HCC1806, 96 h, HCC1806 cells, 96 h) was less than 4.52 and the pIC50 (HCC1937, HCC1937) was less than 4.52. The pIC50 (HCC1954, HCC1954) was less than 4.52, the pIC50 (HCC2218, 96 h) was less than 4.52 and the pIC50 (HCC2935, HCC2935) was less than 4.52. For the same compound, the pIC50 (HCC4006, 96 h) was 6.34, the pIC50 (HCCLM3, 96 h, HCCLM3 cells, 96 h) was less than 4.52 and the pIC50 (HCT-8, HCT-8) was 6.11. The pIC50 (HCT-15, HCT-15) was 6.52, the pIC50 (HCT-116, HCT-116) was 6.04 and the pIC50 (HEC-1-A, 96 h, HEC-1-A cells, 96 h) was less than 4.52. For the same compound, the pIC50 (HEC-1B, 96 h, HEC-1-B cells, 96 h) was 6.26, the pIC50 (HEL 92.1.7, HEL 92.1.7) was 6.42 and the pIC50 (HGC-27, 96 h, HGC-27 cells, 96 h) was 6.29. It also gave a pIC50 (HL-60, HL-60) of 6.00, a pIC50 (HLE, 96 h, HLE cells, 96 h) of less than 4.52 and a pIC50 (HOS, 96 h, HOS cells, 96 h) of less than 4.52. It also gave a pIC50 (HPAC) of 6.34, a pIC50 (HT55, HT-55) of less than 4.52 and a pIC50 (HT-3, 96 h, HT-3 cells, 96 h) of less than 4.52. The pIC50 (HT-29, HT-29) was 5.90, the pIC50 (HT-1080, 96 h) was 5.98 and the pIC50 (HT-1376, HT-1376) was less than 4.52. The pIC50 (HeLa 229, 96 h, HeLa 229 cells, 96 h) was less than 4.52, the pIC50 (HeLa, 96 h, HeLa cells, 96 h) was 5.76 and the pIC50 (Hep3B) was less than 4.52. For the same compound, the pIC50 (HepG2, Hep G2) was less than 4.52, the pIC50 (HuCCT-1, 96 h, HuCCT1, 96 h) was less than 4.52 and the pIC50 (HuH-1, HUH-1) was less than 4.52. It also gave a pIC50 (HuT78, HuT 78) of 6.20, a pIC50 (HuTu80, Hutu 80) of 6.07 and a pIC50 (Huh-7, 96 h, HUH-7 cells, 96 h) of 5.98. The pIC50 (IMR-32, 96 h, IMR-32 cells, 96 h) was 6.10, the pIC50 (Ishikawa, 96 h, Ishikawa, 96 h) was 6.54 and the pIC50 (J82, 96 h, J82 cells, 96 h) was 5.95. It also gave a pIC50 (JEG-3, 96 h, JEG-3 cells, 96 h) of 5.97, a pIC50 (JIMT-1, 96 h, JIMT-1 cells, 96 h) of less than 4.52 and a pIC50 (JJN-3, 96 h, JJN-3 cells, 96 h) of 5.87. For the same compound, the pIC50 (JVM-2, JVM-2) was 6.14, the pIC50 (JVM-3, JVM-3) was 6.57 and the pIC50 (JeKo-1, 96 h, JeKo-1 cells, 96 h) was 6.10. It also gave a pIC50 (Jurkat, Jurkat clone E6-1) of 6.19, a pIC50 (K562, K-562) of 6.24 and a pIC50 (KARPAS-299, 96 h, KARPAS-299 cells, 96 h) of less than 4.52. For the same compound, the pIC50 (KARPAS-422, KARPAS-422) was 6.11, the pIC50 (KATO III, 96 h, KATO III, 96 h) was less than 4.52 and the pIC50 (KG-1, KG-1) was 5.98. It also gave a pIC50 (KHOS/NP, 96 h, KHOS/NP cells, 96 h) of less than 4.52, a pIC50 (KM-H2, 96 h, KMH-2 cells, 96 h) of 5.84 and a pIC50 (KMS-11, KMS-11) of 6.20. The pIC50 (KP-4, 96 h, KP4 cells, 96 h) was 6.28, the pIC50 (KYSE-70, KYSE-70) was 6.34 and the pIC50 (KYSE-150, KYSE-150) was 6.12. It also gave a pIC50 (KYSE-270, KYSE-270) of 5.32, a pIC50 (KYSE-410, 96 h, KYSE-410 cells, 96 h) of less than 3.52 and a pIC50 (Kasumi 1, Kasumi-1) of 5.96. The pIC50 (L-363, L-363) was 6.06, the pIC50 (LN-18, 96 h, LN-18 cells, 96 h) was 6.28 and the pIC50 (LN-229, 96 h, LN-229 cells, 96 h) was less than 4.52. For the same compound, the pIC50 (LNCaP-Clone-FGC, 96 h, LNCaP clone FGC, 96 h) was 6.74, the pIC50 (LP-1, LP-1) was 6.31 and the pIC50 (LS180, LS 180) was less than 4.52. For the same compound, the pIC50 (LS-123, 96 h, LS123 cells, 96 h) was less than 4.52, the pIC50 (LS-411N, LS411N) was 6.15 and the pIC50 (LS-513, 96 h, LS513 cells, 96 h) was 6.15. For the same compound, the pIC50 (LS-1034, 96 h, LS1034 cells, 96 h) was less than 4.52, the pIC50 (LoVo) was less than 4.52 and the pIC50 (MCF7, MCF7) was less than 4.52. For the same compound, the pIC50 (MDA-MB-231, MDA-MB-231) was less than 4.52, the pIC50 (MDA-MB-415, MDA-MB-415) was less than 4.52 and the pIC50 (MDA-MB-436, 96 h) was less than 4.52. It also gave a pIC50 (MDA-MB-453, MDA-MB-453) of less than 4.52, a pIC50 (MDA-MB-468, 96 h, MDA-MB-468 cells, 96 h) of 6.28 and a pIC50 (ME-180, 96 h, ME-180 cells, 96 h) of 6.26. The pIC50 (MEG-01, MEG-01) was 5.81, the pIC50 (MES-SA, 96 h, MES-SA cells, 96 h) was 6.31 and the pIC50 (MES-SA/Dx5, 96 h, MES-SA/DX5 cells, 96 h) was 6.47. The pIC50 (MFE-296, 96 h, MFE-296 cells, 96 h) was less than 4.52, the pIC50 (MHCC97H, MHCC97-H) was 5.49 and the pIC50 (MIA PaCa-2, MIA PaCa-2) was 5.54. The pIC50 (MKN-1, 96 h, MKN1 cells, 96 h) was 5.53, the pIC50 (MKN-45, 96 h, MKN45, 96 h) was less than 4.52 and the pIC50 (MKN-74, 96 h, MKN74 cells, 96 h) was less than 4.52. It also gave a pIC50 (ML-2, ML-2) of 6.34, a pIC50 (MM1.S, MM.1S) of less than 4.52 and a pIC50 (MOLM-13, 96 h, MOLM-13 cells, 96 h) of 6.06. It also gave a pIC50 (MOLP-8, 96 h, MOLP8 cells, 96 h) of 6.00, a pIC50 (MOLT-4, Molt-4) of 6.21 and a pIC50 (MSTO-211H, 211 h, MsTo 211H) of 6.26. It also gave a pIC50 (MV4-11, 96 h, MV-4-11 cells, 96 h) of 6.49, a pIC50 (MX1, MX-1) of less than 4.52 and a pIC50 (NALM-6, NALM-6) of 6.15. The pIC50 (NB-4, 96 h, NB4 cells, 96 h) was 6.96, the pIC50 (NCI-H23, 96 h, NCI-H23 cells, 96 h) was 6.12 and the pIC50 (NCI-H69, 96 h, NCI-H69 cells, 96 h) was less than 4.52. For the same compound, the pIC50 (NCI-H82, 96 h) was 6.12, the pIC50 (NCI-H146, 96 h, NCI-H146 cells, 96 h) was less than 4.52 and the pIC50 (NCI-H187, NCI-H187) was 6.48. The pIC50 (NCI-H209, 96 h, NCI-H209 cells, 96 h) was less than 4.52 and the pIC50 (NCI-H226, NCI-H226) was 5.68.
